# From US20250101436A1, “APTAMERS AND SMALL MOLECULE LIGANDS” (MeiraGTx UK II Limited, priority 2021, published 2025)
# System: luciferase gene expression in HEK 293 cells in response to Comp. 004
# Assay: Screen of riboswitch constructs with 12C6-1 variant aptamers (libraries N1-N5) against Comp. 004, luciferase in HEK 293 cells
# Assay type: cell-based, human
# Excerpt: Cloning of riboswitch constructs containing 12C6-1 variant aptamer sequences: 12C6-1 aptamer sequence was used as template, and nucleobases were randomized at certain position in the sequence. Aptamers incorporating random mutagenesis were synthesized by Integrated DNA Technologies, Inc. Golden Gate cloning strategy (New England Biolabs, NEB) was used to clone the synthesized aptamer sequences into intron-exon-intron cassette to replace the 12C6-1 aptamer in the Luci-12C6-1 riboswitch construct, generating riboswitch constructs containing variant aptamer sequences.
# To further improve the riboswitch activity in responding to Comp. 004 and related compounds, the aptamer sequence 12C6-1 was subject to mutagenesis to generate aptamer variants, and the riboswitches containing the variant aptamers were screened against Comp. 004 for the ones that have improved dynamic range of induced gene expression (the fold induction), in comparison with the fold induction by parental riboswitch construct Luci-12C6-1. […] These loop or junction region alone or together with stem region in proximity were chosen for random mutagenesis to generate riboswitches with re-engineered aptamer sequences with improved activity.
# Five aptamer libraries N1, N2, N3, N4 and N5 were generated by randomizing nucleotides at positions in J2-4, J2-3/J3-3a/J3a-2/P3, L3a, J4-5/J5-4/P4 and L5 regions of the parent 12C6-1 sequence, respectively (see FIGS. 3a and 3b). Single bacterial colonies were picked and plasmids containing variant riboswitch constructs were screened in HEK 293 cells for improved gene regulation activity in response to 25 µM Comp. 004 as compared to parent riboswitch construct Luci-12C6-1.
# [1] = library N5 variant aptamers (L5, X16-X21 randomized) of 12C6-1 in riboswitch constructs, in response to Comp. 004 treatment, HEK 293 cells
# [2] = library N2 variant aptamers (J2-3, P3-J3-3a, J3a-2 randomized) of 12C6-1 in riboswitch constructs, in response to Comp. 004, HEK 293 cells
# [3] = library N1 (J2-4), HEK 293, 25 M [sic] Comp. 004
Substance,Fold (induction of luciferase gene expression) [1],also measured
N5_2C2 (CTGGGGAGTCCT; chemistry not given here),894.7 fold,
N5_7D4 (DNA CTGGGGAGTCCT; chemistry not given here),1144.9 fold,
N5_1D12 (CTGGGGAGTCCT; chemistry not given here),3.6 fold,
N5_1H11 (CTGGGGAGTCCT; chemistry not given here),413.6 fold,
N5_1B11 (CTGGGGAGTCCT; chemistry not given here),477.1 fold,
N5_13G10 (CTGGGGAGTCCT; chemistry not given here),1604.0 fold,
N2_2F7 (DNA CTGGGGAGTCCTTCATGC; chemistry not given here),,Fold (induction of luciferase gene expression) [2]: 1.0 fold
N5_7C8 (DNA CTGGGGAGTCCT; chemistry not given here),1313.8 fold,
N5_7F2 (DNA CTGGGGAGTCCT; chemistry not given here),937.4 fold,
N1_2F10 (CTGGGGAGTCCTTCATGCGGGGC; chemistry not given here),,Fold (induction of luciferase gene expression) [3]: 10.84 fold
N1_2D10 (CTGGGGAGTCCTTCATGCGGGGC; chemistry not given here),,Fold (induction of luciferase gene expression) [3]: 15.53 fold
N5_1F6 (CTGGGGAGTCCT; chemistry not given here),247.6 fold,
N5_5B6 (CTGGGGAGTCCT; chemistry not given here),1068.3 fold,
N5_1C4 (CTGGGGAGTCCT; chemistry not given here),665.0 fold,
N5_7A9 (CTGGGGAGTCCT; chemistry not given here),692.6 fold,
N5_7H12 (DNA CTGGGGAGTCCT; chemistry not given here),1194.5 fold,
N1_2F7 (CTGGGGAGTCCTTCATGCGGGGC; chemistry not given here),,Fold (induction of luciferase gene expression) [3]: 41.88 fold
N5_7G3 (DNA CTGGGGAGTCCT; chemistry not given here),799.3 fold,
N5_1C5 (CTGGGGAGTCCT; chemistry not given here),966.1 fold,
N2_2C10 (CTGGGGAGTCCTTCATGC; chemistry not given here),,Fold (induction of luciferase gene expression) [2]: 1.2 fold
N5_6F5 (CTGGGGAGTCCT; chemistry not given here),1665.4 fold,
N5_1E2 (CTGGGGAGTCCT; chemistry not given here),728.6 fold,
N2_2D10 (DNA CTGGGGAGTCCTTCATGC; chemistry not given here),,Fold (induction of luciferase gene expression) [2]: 1.2 fold
N5_6F6 (CTGGGGAGTCCT; chemistry not given here),953.0 fold,

Substance,Fold (induction of luciferase gene expression) [1],also measured
N5_1E11 (CTGGGGAGTCCT; chemistry not given here),1095.6 fold,
N5_7B8 (CTGGGGAGTCCT; chemistry not given here),693.7 fold,
N5_13G12 (CTGGGGAGTCCT; chemistry not given here),1199.4 fold,
N2_2A1 (CTGGGGAGTCCTTCATGC; chemistry not given here),,Fold (induction of luciferase gene expression) [2]: 1.0 fold
N2_2H6 (CTGGGGAGTCCTTCATGC; chemistry not given here),,Fold (induction of luciferase gene expression) [2]: 1.0 fold
N2_2H8 (CTGGGGAGTCCTTCATGC; chemistry not given here),,Fold (induction of luciferase gene expression) [2]: 1.4 fold
N2_2C1 (CTGGGGAGTCCTTCATGC; chemistry not given here),,Fold (induction of luciferase gene expression) [2]: 1.1 fold
N2_2A9 (CTGGGGAGTCCTTCATGC; chemistry not given here),,Fold (induction of luciferase gene expression) [2]: 1.1 fold
N5_7E11 (DNA CTGGGGAGTCCT; chemistry not given here),732.1 fold,
N5_7H10 (DNA CTGGGGAGTCCT; chemistry not given here),713.9 fold,
N5_14B10 (CTGGGGAGTCCT; chemistry not given here),1133.0 fold,
N5_7H4 (DNA CTGGGGAGTCCT; chemistry not given here),560.0 fold,
N5_1D6 (CTGGGGAGTCCT; chemistry not given here),684.9 fold,
N5_3C10 (CTGGGGAGTCCT; chemistry not given here),751.6 fold,
N2_2B6 (CTGGGGAGTCCTTCATGC; chemistry not given here),,Fold (induction of luciferase gene expression) [2]: 0.8 fold
N5_11G4 (CTGGGGAGTCCT; chemistry not given here),931.9 fold,
N1_2E4 (CTGGGGAGTCCTTCATGCGGGGC; chemistry not given here),,Fold (induction of luciferase gene expression) [3]: 10.44 fold
N5_1A1 (CTGGGGAGTCCT; chemistry not given here),670.2 fold,
N5_9F1 (DNA CTGGGGAGTCCT; chemistry not given here),875.6 fold,
N5_1A7 (CTGGGGAGTCCT; chemistry not given here),659.9 fold,
N5_7B3 (CTGGGGAGTCCT; chemistry not given here),756.3 fold,
N1_2H1 (CTGGGGAGTCCTTCATGCGGGGC; chemistry not given here),,Fold (induction of luciferase gene expression) [3]: 9.41 fold
N1_2G9 (CTGGGGAGTCCTTCATGCGGGGC; chemistry not given here),,Fold (induction of luciferase gene expression) [3]: 30.93 fold
N5_14D10 (CTGGGGAGTCCT; chemistry not given here),950.5 fold,

Substance,Fold (induction of luciferase gene expression) [1],also measured
N2_2H3 (CTGGGGAGTCCTTCATGC; chemistry not given here),,Fold (induction of luciferase gene expression) [2]: 1.0 fold
N2_2D11 (DNA CTGGGGAGTCCTTCATGC; chemistry not given here),,Fold (induction of luciferase gene expression) [2]: 1.3 fold
N2_2E3 (DNA CTGGGGAGTCCTTCATGC; chemistry not given here),,Fold (induction of luciferase gene expression) [2]: 1.3 fold
N5_7C2 (DNA CTGGGGAGTCCT; chemistry not given here),627.0 fold,
N1_2G4 (CTGGGGAGTCCTTCATGCGGGGC; chemistry not given here),,Fold (induction of luciferase gene expression) [3]: 9.06 fold
N5_12E5 (CTGGGGAGTCCT; chemistry not given here),1898.6 fold,
N5_6F4 (CTGGGGAGTCCT; chemistry not given here),1226.6 fold,
N5_7G1 (DNA CTGGGGAGTCCT; chemistry not given here),935.4 fold,
N5_3C8 (CTGGGGAGTCCT; chemistry not given here),835.1 fold,
N5_2B11 (CTGGGGAGTCCT; chemistry not given here),1009.4 fold,
N5_2F10 (CTGGGGAGTCCT; chemistry not given here),1014.6 fold,
N2_2H2 (CTGGGGAGTCCTTCATGC; chemistry not given here),,Fold (induction of luciferase gene expression) [2]: 0.8 fold
N5_12F11 (CTGGGGAGTCCT; chemistry not given here),926.7 fold,
N2_2A5 (CTGGGGAGTCCTTCATGC; chemistry not given here),,Fold (induction of luciferase gene expression) [2]: 1.0 fold
N2_2A3 (CTGGGGAGTCCTTCATGC; chemistry not given here),,Fold (induction of luciferase gene expression) [2]: 0.8 fold
N5_1A9 (CTGGGGAGTCCT; chemistry not given here),804.7 fold,
N2_2C2 (CTGGGGAGTCCTTCATGC; chemistry not given here),,Fold (induction of luciferase gene expression) [2]: 0.8 fold
N2_2D9 (DNA CTGGGGAGTCCTTCATGC; chemistry not given here),,Fold (induction of luciferase gene expression) [2]: 1.0 fold
N5_7E8 (DNA CTGGGGAGTCCT; chemistry not given here),879.9 fold,
N5_1G10 (CTGGGGAGTCCT; chemistry not given here),1000.2 fold,
N1_2F1 (CTGGGGAGTCCTTCATGCGGGGC; chemistry not given here),,Fold (induction of luciferase gene expression) [3]: 8.34 fold
N5_9C12 (DNA CTGGGGAGTCCT; chemistry not given here),1094.3 fold,
N5_1H8 (CTGGGGAGTCCT; chemistry not given here),622.6 fold,
